The test has as its system Radical scavenging activity. Description: Antioxidant activity assessed as DPPH radical scavenging activity. Type of test: functional.

As a reminder, the EC50 is the concentration at which the effect is half-maximal. With `CCc1c(O)c(O)c2c(c1O)C(=O)C(N)=C(O)C2=O` [ECHINAMINE B], the concentration giving a half-maximal response (EC50) came out at 10 µM.
In the case of `CCc1c(O)c(O)c2c(c1O)C(=O)C(O)=C(N)C2=O` [ECHINAMINE A] it was 10 µM; in that of `O=C1C(O)=C(O)C(=O)c2c(O)c(O)cc(O)c21` [SPINOCHROME D], 10 µM; in that of `CCC1=C(O)C(=O)c2c(O)c(O)c(O)c(O)c2C1=O` [ECHINOCHROME A], 10 µM.

The record behind these values is ChEMBL document CHEMBL1158811, “Echinamines A and B, first aminated hydroxynaphthazarins from the sea urchin Scaphechinus mirabilis” (J Nat Prod, 2005).
